Test results reported in patent US8236789B2, “1-adamantyl azetidin-2-one derivatives and drugs containing same” (Kowa Company, Ltd., priority 2008, dated 2012).

Legend:
mouse 11β-HSD1 = molecular target: T1, mouse 11β-HSD1 (Mus musculus, UniProt P50172); assay: Enzyme inhibitory activity assay, lysate of CHO-K1 cells stably expressing mouse 11β-HSD1, cortisol by competitive ELISA; type: biochemical; conditions: Table 2; cell lysate, 100 nmol/L cortisone, NADPH, 37° C. 1 hour; read-out: in vitro assay (IC50 uM) m HSD1
T1 construct: expressed in transfected cells
Method: (§1) 1. Human 11β-HSD1-, Human 11β-HSD2- and Mouse 11β-HSD1-Gene Clonings and Establishment of Stably Expressing Cells
(§2) Human 11β-HSD1- and human 11β-HSD2-expressing vectors were transfected into human kidney-derived cell line, HEK293 cells, using a transfection reagent, jet PEI (Funakoshi). Mouse 11β-HSD1 was transfected to Chinese hamster ovary-derived cell line, CHO-K1 cells. Selection was conducted with 200-400 μg/mL of zeocine (Invitrogen) to provide stably expressing-cell clones. The stably expressing cells were suspended in buffer solution A (20 mmol/L Tris-HCl, pH 7.4, 250 mmol/L sucrose, 1 mmol/L EGTA, 1 mmol/L EDTA, 1 mmol/L MgCl2), sonicated, and then stored at −80° C.
(§3) 2. Assay of Enzyme Inhibitory Activity
(§4) An enzymatic reaction was conducted using a polystyrene 96-well plate. Each well was added with 1 μL of a test agent dissolved in DMSO and then diluted (0.003 to 3 mmol/L), and further added with 10 μL of cell lysate diluted to a concentration of 0.1 mg/mL to 0.4 mg/mL. Next, 90 μL of buffer solution A containing substrate (100 nmol/L cortisone or cortisol) and coenzyme (400 μmol/L NADPH or NAD+) was added and the mixture was incubated at 37° C. for 1 hour. The enzymatic reaction was stopped by treating at 95° C. for 3 minutes. Cortisol that was present in the reaction solution was determined by a competitive ELISA shown below.
(§5) Anti-rabbit IgG antibody (Chemi-con) diluted to 2 μg/mL with carbonate buffer solution (pH 9.6) was added in 100 μL each to a 96-well immuno plate (Nunc) and immobilized by an incubation at 4° C. overnight. […] After washed three times with buffer solution B containing 0.05% Tween 20, the plates were allowed to develop color by adding 100 μL, of color reagent, TMB (Moss). The color reaction was stopped by 25 μL of 1 mol/L sulfuric acid and the absorbance was determined at 450 nm with a microplate reader (Molecular Device, VersaMax).

human 11β-HSD1 = molecular target: T2, human 11β-HSD1 (Homo sapiens, UniProt P28845); assay: Enzyme inhibitory activity assay, lysate of HEK293 cells stably expressing human 11β-HSD1, cortisol by competitive ELISA; type: biochemical; conditions: Table 1; cell lysate, 100 nmol/L cortisone, NADPH, 37° C. 1 hour; read-out: in vitro assay (IC50 uM) h HSD1
T2 construct: expressed in transfected cells
Method: as §1, §2, §3, §4, §5

T2 sequence (P28845 whole entry): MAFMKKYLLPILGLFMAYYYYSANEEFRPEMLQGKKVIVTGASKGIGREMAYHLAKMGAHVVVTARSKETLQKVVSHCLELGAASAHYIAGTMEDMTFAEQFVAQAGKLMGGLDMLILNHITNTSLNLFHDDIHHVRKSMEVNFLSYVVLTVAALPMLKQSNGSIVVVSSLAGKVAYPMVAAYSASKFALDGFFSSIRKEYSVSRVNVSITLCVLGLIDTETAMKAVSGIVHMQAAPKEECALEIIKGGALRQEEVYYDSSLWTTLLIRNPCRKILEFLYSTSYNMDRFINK
T1 sequence (P50172 whole entry): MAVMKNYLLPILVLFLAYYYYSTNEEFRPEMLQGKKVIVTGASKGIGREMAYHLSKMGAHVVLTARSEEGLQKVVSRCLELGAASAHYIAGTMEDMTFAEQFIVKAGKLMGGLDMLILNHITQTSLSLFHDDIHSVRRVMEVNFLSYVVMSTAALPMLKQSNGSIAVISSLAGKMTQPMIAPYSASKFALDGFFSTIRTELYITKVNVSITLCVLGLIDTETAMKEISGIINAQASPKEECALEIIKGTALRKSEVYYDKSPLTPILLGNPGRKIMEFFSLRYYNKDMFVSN

| IC50 (mouse 11β-HSD1) | IC50 (human 11β-HSD1) | Structure (SMILES) |
| --- | --- | --- |
| 0.13 µM | 0.016 µM | CC1(C)C(=O)N(C2C3CC4CC(C3)CC2C4)C1c1cccc(C(F)(F)F)c1Cl (centres unmarked) [Example 30, 1-(adamantan-2-yl)-3,3-dimethyl-4-(2-chloro-3-trifluoromethylphenyl)azetidin-2-one] |
| 0.33 µM | 0.0088 µM | COc1ccc(C2N([C@H]3C4CC5CC3C[C@](O)(C5)C4)C(=O)C2(C)C)c2ccccc12 (stereo partly drawn) [Example 48, trans-1-(5-hydroxyadamantan-2-yl)-3,3-dimethyl-4-(4-methoxynaphthalen-1-yl)azetidin-2-one] |
| 0.031 µM | 0.012 µM | COc1cccc(C2N(C3C4CC5CC(C4)CC3C5)C(=O)C2(C)C)c1 (centres unmarked) [Example 34, 1-(adamantan-2-yl)-3,3-dimethyl-4-(3-methoxyphenyl)azetidin-2-one] |
| 0.023 µM | 0.022 µM | CC1(C)C(=O)N([C@H]2C3CC4CC2C[C@](C(N)=O)(C4)C3)C1c1cccc2ccccc12 (stereo partly drawn) [Example 12, trans-4-[2-(naphthalen-1-yl)-3,3-dimethyl-4-oxoazetidin-1-yl]-1-adamantane carboxyamide] |
| 0.69 µM | 0.006 µM | CC1(C)C(=O)N(C2C3CC4CC(C3)CC2C4)C1c1ccc(OC(F)(F)F)cc1 (centres unmarked) [Example 42, 1-(adamantan-2-yl)-3,3-dimethyl-4-(4-trifluoromethoxyphenyl)azetidin-2-one] |
| 0.34 µM | 0.046 µM | CC1(C)C(=O)N([C@H]2C3CC4CC2C[C@@](Cl)(C4)C3)C1c1cccc(Cl)c1Cl (stereo partly drawn) [Example 4, cis-1-(5-chloroadamantan-2-yl)-3,3-dimethyl-4-(2,3-dichlorophenyl)azetidin-2-one] |
| 0.074 µM | 0.029 µM | COC(=O)[C@]12CC3CC(C1)[C@@H](N1C(=O)C(C)(C)C1c1cccc4cccnc14)C(C3)C2 (stereo partly drawn) [Example 18, methyl trans-4-[2-(quinolin-8-yl)-3,3-dimethyl-4-oxoazetidin-1-yl]-1-adamantane carboxylate] |
| 0.0095 µM | 0.013 µM | CC1(C)C(=O)N([C@H]2C3CC4CC2C[C@](C(=O)O)(C4)C3)C1c1cccc2c1OCO2 (stereo partly drawn) [Example 14, trans-4-[2-(benzo[d][1,3]dioxol-4-yl)-3,3-dimethyl-4-oxoazetidin-1-yl]-1-adamantane carboxylic acid] |
| 0.054 µM | 0.0054 µM | CC1(C)C(=O)N(C2C3CC4CC(C3)CC2C4)C1c1cccc(Cl)c1Cl (centres unmarked) [Example 2, 1-(adamantan-2-yl)-3,3-dimethyl-4-(2,3-dichlorophenyl)azetidin-2-one] |
| 0.66 µM | 0.88 µM | CC1(C)C(=O)N([C@H]2C3CC4CC2C[C@](Cl)(C4)C3)C1c1cccc2ccccc12 (stereo partly drawn) [Example 5, trans-1-(5-chloroadamantan-2-yl)-3,3-dimethyl-4-(naphthalen-1-yl)azetidin-2-one] |
